The results in this text go back to patent US8507502B2, “Fused bicyclic and tricyclic pyrimidine compounds as tyrosine kinase inhibitors” (National Health Research Institutes, priority 2008, dated 2013).

Read-outs that look alike come from different tables or passages of the source.

One experiment deals with T1, GST-EGFR-KD^WT (Homo sapiens, UniProt P00533).
T1 construct: 50 ng GST-EGFR-KD^WT proteins; made in house
As to the kind of experiment: EGFR kinase assay (Kinase-Glo). The experiment is classed as biochemical. To be noted: 5 μM ATP, read-out: IC50 (concentration at which activity of 50% of EGFR is inhibited). Background: Kinase-Glo reads ATP consumption through a luciferase reaction.

The target of a further experiment is T2, GST-EGFR-KD^L858R/T790M (Homo sapiens, UniProt P00533, L858R/T790M).
T2 construct: residues from 696 to 1022 and with L858R/T790M; made in house; host or cells: Sf9 insect cells (baculovirus)
T2 sequence (P00533 696-1022 T790M/L858R): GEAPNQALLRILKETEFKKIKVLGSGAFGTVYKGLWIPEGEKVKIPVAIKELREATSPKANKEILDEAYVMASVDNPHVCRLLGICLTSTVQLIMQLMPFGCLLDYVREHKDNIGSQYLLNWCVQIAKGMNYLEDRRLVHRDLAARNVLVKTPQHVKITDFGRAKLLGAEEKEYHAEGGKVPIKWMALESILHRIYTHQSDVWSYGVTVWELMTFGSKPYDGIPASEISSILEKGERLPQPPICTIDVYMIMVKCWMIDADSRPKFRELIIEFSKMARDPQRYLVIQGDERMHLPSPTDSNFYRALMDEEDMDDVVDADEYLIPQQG
As to the kind of experiment: Double mutant EGFR kinase assay (Kinase-Glo). The experiment is classed as biochemical. To be noted: 1 μM ATP, read-out: IC50 (concentration at which activity of 50% of mutant EGFR is inhibited).

A further experiment relates to HCC827 cells. Kind of experiment: HCC827 cell viability, MTS assay. In kind it is cell-based. To be noted: Homo sapiens, 96-h incubation, read-out: IC50 (concentration which causes 50% of the cell death).
The next experiment concerns HCC827. Kind of experiment: In vivo anticancer activity, lung cancer xenograft mice (injected with HCC827). Also on record: species or system nude mice. As to conditions: for tumor size relative to that of the vehicle controls: days 1-5 and 8-12, 22nd day post treatment. The method, then:
In vivo efficacy of the compounds of this invention was assessed using lung cancer xenograft mice (injected with HCC827), as described in Cancer Research 2004, 64, 4621-4628.
HCC827 cells were injected via s.c. in nude mice to form lung cancer xenograft mice. Mice bearing tumor with a size of ˜100 mm^3 were randomly assigned to two groups: a vehicle control group (10 mice), and a treatment group (21 mice). Of the treated mice, 21 received Compound 62 at a daily dosage of 5 mg/kg and 15 mg/kg via IV injection through the tail veins for 5 days/week for 2 consecutive weeks (days 1-5 and 8-12).

T1 sequence (P00533 712-979 limits assumed): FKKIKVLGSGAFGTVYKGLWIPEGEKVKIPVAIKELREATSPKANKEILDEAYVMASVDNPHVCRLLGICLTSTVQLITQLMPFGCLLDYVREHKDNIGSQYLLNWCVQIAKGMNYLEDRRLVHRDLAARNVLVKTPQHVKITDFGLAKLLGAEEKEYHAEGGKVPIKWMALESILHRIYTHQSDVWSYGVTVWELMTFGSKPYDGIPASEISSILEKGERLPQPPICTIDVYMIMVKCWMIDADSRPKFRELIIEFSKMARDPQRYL
Method for GST-EGFR-KD^L858R/T790M: Following incubation, 50 μL Kinase-Glo Plus Reagent (Promega) was added and the mixture was incubated at 25° C. for 20 min.
Method for GST-EGFR-KD^WT: Following incubation, 50 μl Kinase-Glo Plus Reagent (Promega) was added and the mixture was further incubated at 25° C. for 20 min.
Method for HCC827 cells: HCC827 cell viability was examined by the MTS assay (Promega, Madison, Wis., USA). 1000 HCC827 cells in 100 μl RPMI1640 with 10% FBS medium were seeded in each well of a 96-well plate. After 96-h incubation with a test compound, the cells were further incubated with 20 μl of a MTS/PMS mixture (MTS/PMS ratio: 20:1) in each well of the 96-well plate for 2 h at 37° C. in a humidified incubator with 5% CO2 to allow viable cells to convert the tetrazolium salt (MTS) into formazan. The amount/concentration of formazan, which indicates the number of live cells, was determined by measuring its absorbance at 490 nm using a PerkinElmer Victor2 plate reader (PerkinElmer, Shelton, Conn., USA).

For the compound `C=CC(=O)N1CCc2c(sc3ncnc(N[C@H](COCc4cccc(C)c4)c4ccccc4)c23)C1` [Compound 227], the values for the IC50 on GST-EGFR-KD^WT, at GST-EGFR-KD^L858R/T790M and in the experiment with HCC827 cells were under 59 nM, 10 to 499 nM and 1 to 99 nM, respectively.

Take `C[C@@H](Nc1ncnc2sc3c(c12)CCN(C(=O)/C=C/CN(C)C)C3)c1ccccc1` [Compound 178]: the results for the IC50 on GST-EGFR-KD^WT, on GST-EGFR-KD^L858R/T790M and in the experiment with HCC827 cells were under 59 nM, 500 to 2500 nM and 1 to 99 nM, respectively.

As for `CN1CCN(C/C=C/C(=O)N2CCc3c(sc4ncnc(N[C@H](CO)c5ccccc5)c34)C2)CC1` [Compound 67], the IC50 was under 59 nM at GST-EGFR-KD^WT, 500 to 2500 nM on GST-EGFR-KD^L858R/T790M and 1 to 99 nM in the experiment on HCC827 cells.

For the compound `C[C@@H](Nc1ncnc2sc3c(c12)CCN(C(=O)/C=C/CN(CCO)CCO)C3)c1ccccc1` [Compound 215], the IC50 on GST-EGFR-KD^WT was under 59 nM; on GST-EGFR-KD^L858R/T790M it was 500 to 2500 nM; with HCC827 cells, 1 to 99 nM.

Consider `C=CC(=O)N1CCc2c(sc3ncnc(N[C@H](C)c4ccccc4)c23)C1` [Compound 64], for which the IC50 on GST-EGFR-KD^WT is under 59 nM; at GST-EGFR-KD^L858R/T790M it was 500 to 2500 nM; in the experiment on HCC827 cells, 1 to 99 nM.

As for `C=CC(=O)N1CCc2c(sc3ncnc(N[C@H](CCO)c4ccccc4)c23)C1` [Compound 176], the IC50 at GST-EGFR-KD^WT was under 59 nM; on GST-EGFR-KD^L858R/T790M, 10 to 499 nM; in the experiment on HCC827 cells it was 1 to 99 nM.

Turning to `CN(C)C/C=C/C(=O)N1CCc2c(sc3ncnc(N[C@H](COCc4ccccc4)c4ccccc4)c23)C1` [Compound 198], the IC50 was under 59 nM on GST-EGFR-KD^WT, 500 to 2500 nM at GST-EGFR-KD^L858R/T790M and 1 to 99 nM in the experiment with HCC827 cells.

Turning to `CNC/C=C/C(=O)N1CCc2c(sc3ncnc(N[C@H](C)c4ccccc4)c23)C1` [Compound 205], the figures for the IC50 at GST-EGFR-KD^WT, on GST-EGFR-KD^L858R/T790M and with HCC827 cells were under 59 nM, 500 to 2500 nM and 1 to 99 nM, respectively.

Consider `CCN(CC)C/C=C/C(=O)N1CCc2c(sc3ncnc(N[C@H](C)c4ccccc4)c23)C1` [Compound 190], for which the IC50 was under 59 nM at GST-EGFR-KD^WT, 500 to 2500 nM on GST-EGFR-KD^L858R/T790M and 1 to 99 nM in the experiment on HCC827 cells.

`C=CC(=O)N1CCc2c(sc3ncnc(N[C@H](COCc4cccc(F)c4)c4ccccc4)c23)C1` [Compound 200]: the IC50 was under 59 nM on GST-EGFR-KD^WT, 10 to 499 nM on GST-EGFR-KD^L858R/T790M and 1 to 99 nM in the experiment on HCC827 cells.

On to `C=CC(=O)Nc1cccc(-c2c(-c3ccccc3)oc3ncnc(N[C@H](C)c4ccccc4)c23)c1` [Compound 239], for which the IC50 was 101 to 900 nM at GST-EGFR-KD^WT (range given in mixed units), 500 to 2500 nM on GST-EGFR-KD^L858R/T790M and 1 to 99 nM with HCC827 cells.

Regarding `C=CC(=O)N1CCc2c(sc3ncnc(N[C@H](COCc4ccccc4)c4ccccc4)c23)C1` [Compound 195], the IC50 at GST-EGFR-KD^WT was under 59 nM; at GST-EGFR-KD^L858R/T790M, 10 to 499 nM; with HCC827 cells, 1 to 99 nM.

For the compound `C=CC(=O)N1CCc2c(sc3ncnc(NC(CCO)c4ccccc4)c23)C1` (centres unmarked) [Compound 188], the values for the IC50 on GST-EGFR-KD^WT (range given in mixed units), on GST-EGFR-KD^L858R/T790M and in the experiment on HCC827 cells were 101 to 900 nM, 500 to 2500 nM and 301 to 999 nM, respectively.

With `C=CC(=O)N1CCc2c(sc3ncnc(N[C@H](COC)c4ccccc4)c23)C1` [Compound 185], the IC50 at GST-EGFR-KD^WT is under 59 nM; on GST-EGFR-KD^L858R/T790M it was 10 to 499 nM; in the experiment on HCC827 cells, 1 to 99 nM.

For `CCN(CC)C/C=C/C(=O)N1CCc2c(sc3ncnc(N[C@H](CO)c4ccccc4)c23)C1` [Compound 75], the IC50 at GST-EGFR-KD^WT is under 59 nM; at GST-EGFR-KD^L858R/T790M it was 500 to 2500 nM; in the experiment on HCC827 cells, 1 to 99 nM.

`C=CC(=O)N1CCc2c(sc3ncnc(N[C@H](CO)c4ccccc4)c23)C1` [Compound 12, 1-[4-(2-hydroxy-1-phenyl-ethylamino)-5,8-dihydro-6H-9-thia-1,3,7-triaza-fluoren-7-yl]-propenone]: the IC50 at GST-EGFR-KD^WT is under 59 nM; at GST-EGFR-KD^L858R/T790M, 10 to 499 nM; in the experiment with HCC827 cells it was 1 to 99 nM.

Regarding `CN(C)C/C=C/C(=O)N1CCc2c(sc3ncnc(N[C@H](CO)c4ccccc4)c23)C1` [Compound 62], the IC50 on GST-EGFR-KD^WT is under 59 nM; at GST-EGFR-KD^L858R/T790M, 10 to 499 nM; with HCC827 cells it was 1 to 99 nM. The figures for the “tumor size relative to that of the vehicle controls” value in the experiment on HCC827 (5 mg/kg daily IV) and in the experiment on HCC827 (15 mg/kg daily IV) were 39% and 23%, respectively. Moreover, the tumor growth suppression result in the experiment on HCC827 (5 and 15 mg/kg IV, p<0.05) was “suppressed tumor growth significantly”.

Consider `CN(C)C/C=C/C(=O)N1CCc2c(sc3ncnc(Nc4ccc(F)c(Cl)c4)c23)C1` [Compound 187], for which the IC50 at GST-EGFR-KD^WT is under 59 nM; at GST-EGFR-KD^L858R/T790M, 10 to 499 nM; with HCC827 cells, 1 to 99 nM.

With `CN(C)C/C=C/C(=O)N1CCc2c(sc3ncnc(N[C@H](COCc4cccc(F)c4)c4ccccc4)c23)C1` [Compound 210], the IC50 was under 59 nM on GST-EGFR-KD^WT, 10 to 499 nM at GST-EGFR-KD^L858R/T790M and 1 to 99 nM in the experiment with HCC827 cells.

`C=CC(=O)N1CCc2c(sc3ncnc(N[C@H](CC)c4ccccc4)c23)C1` [Compound 106]: the IC50 was under 59 nM at GST-EGFR-KD^WT, 500 to 2500 nM at GST-EGFR-KD^L858R/T790M and 1 to 99 nM in the experiment on HCC827 cells.

Consider `C=CC(=O)N1CCc2c(sc3ncnc(N[C@H](COCc4cccc([N+](=O)[O-])c4)c4ccccc4)c23)C1` [Compound 226], for which the IC50 on GST-EGFR-KD^WT was under 59 nM; on GST-EGFR-KD^L858R/T790M it was 10 to 499 nM; with HCC827 cells, 1 to 99 nM.

On to `CC[C@@H](Nc1ncnc2sc3c(c12)CCN(C(=O)/C=C/CN(CC)CC)C3)c1ccccc1` [Compound 191], for which the IC50 at GST-EGFR-KD^WT is under 59 nM; on GST-EGFR-KD^L858R/T790M it was 500 to 2500 nM; with HCC827 cells, 1 to 99 nM.

For the compound `O=C(/C=C/CN1CCOCC1)N1CCc2c(sc3ncnc(N[C@H](CO)c4ccccc4)c23)C1` [Compound 66], the IC50 was under 59 nM on GST-EGFR-KD^WT, 500 to 2500 nM on GST-EGFR-KD^L858R/T790M and 1 to 99 nM in the experiment with HCC827 cells.

Consider `C=CS(=O)(=O)N1CCc2c(sc3ncnc(N[C@H](CO)c4ccccc4)c23)C1` [Compound 63], for which the IC50 was 60 to 100 nM on GST-EGFR-KD^WT, 500 to 2500 nM at GST-EGFR-KD^L858R/T790M and 100 to 300 nM in the experiment on HCC827 cells.

Turning to `CN(C)C/C=C/C(=O)N1CCc2c(sc3ncnc(N[C@H](COCc4ccccc4F)c4ccccc4)c23)C1` [Compound 232], the IC50 at GST-EGFR-KD^WT was under 59 nM; at GST-EGFR-KD^L858R/T790M it was 500 to 2500 nM; in the experiment on HCC827 cells, 1 to 99 nM.

`CN(C)C/C=C/C(=O)N1CCc2c(sc3ncnc(N[C@H](COCc4ccccn4)c4ccccc4)c23)C1` [Compound 203]: the IC50 was under 59 nM on GST-EGFR-KD^WT, 500 to 2500 nM at GST-EGFR-KD^L858R/T790M and 1 to 99 nM with HCC827 cells.

In the case of `CC#CC(=O)Nc1cccc(-c2c(-c3ccccc3)oc3ncnc(N[C@H](CO)c4ccccc4)c23)c1` [Compound 241], the IC50 on GST-EGFR-KD^WT is under 59 nM; at GST-EGFR-KD^L858R/T790M, 500 to 2500 nM; in the experiment on HCC827 cells, 1 to 99 nM.

For `COc1cccc(COC[C@@H](Nc2ncnc3sc4c(c23)CCN(C(=O)/C=C/CN(C)C)C4)c2ccccc2)c1` [Compound 228], the figures for the IC50 at GST-EGFR-KD^WT, at GST-EGFR-KD^L858R/T790M and with HCC827 cells were under 59 nM, 500 to 2500 nM and 1 to 99 nM, respectively.

In the case of `C=CC(=O)Nc1cccc(-c2c(-c3ccccc3)oc3ncnc(N[C@H](COC(=O)C=C)c4ccccc4)c23)c1` [Compound 240], the IC50 is 101 to 900 nM on GST-EGFR-KD^WT (range given in mixed units) and 10 to 499 nM on GST-EGFR-KD^L858R/T790M.

Regarding `O=C(/C=C/CN1CCCCC1)N1CCc2c(sc3ncnc(N[C@H](CO)c4ccccc4)c23)C1` [Compound 65], the IC50 at GST-EGFR-KD^WT was under 59 nM; at GST-EGFR-KD^L858R/T790M it was 500 to 2500 nM; with HCC827 cells, 1 to 99 nM.

In the case of `C[C@@H](Nc1ncnc2sc3c(c12)CCN(C(=O)/C=C/CNC1CC1)C3)c1ccccc1` [Compound 211], the IC50 at GST-EGFR-KD^WT was under 59 nM; at GST-EGFR-KD^L858R/T790M, 500 to 2500 nM; in the experiment on HCC827 cells, 1 to 99 nM.

Consider `C=CC(=O)N1CCc2c(sc3ncnc(N[C@H](COCc4ccc(C(F)(F)F)cc4)c4ccccc4)c23)C1` [Compound 202], for which the IC50 on GST-EGFR-KD^WT was under 59 nM; on GST-EGFR-KD^L858R/T790M, 10 to 499 nM; with HCC827 cells, 100 to 300 nM.

On to `C=CC(=O)N1CCc2c(sc3ncnc(N[C@H](COCc4cccc(OC)c4)c4ccccc4)c23)C1` [Compound 223], for which the figures for the IC50 at GST-EGFR-KD^WT, at GST-EGFR-KD^L858R/T790M and in the experiment on HCC827 cells were under 59 nM, 10 to 499 nM and 1 to 99 nM, respectively.

As to `C=CC(=O)N1CCc2c(sc3ncnc(N[C@H](CO)Cc4ccccc4)c23)C1` [Compound 193], the IC50 at GST-EGFR-KD^WT is under 59 nM; at GST-EGFR-KD^L858R/T790M, 500 to 2500 nM; in the experiment with HCC827 cells, 301 to 999 nM.
